# Earlier results as cited in patent publication US20080153167A1, “In vivo amplification of neural progenitor cells” (priority 2006, published 2008).
# Test system: PDGF driven tumors
# Conditions: Shih et al. 2004
smiles,measurement,value
Clc1ccc(Nc2nnc(Cc3ccncc3)c3ccccc23)cc1 [PTK787],effect on PDGF driven tumors,"caused high-grade tumors to acquire low-grade histology, but it did not completely eradicate tumor growth"
